Laboratory results taken from patent US20240270762A1, “PENICILLIN-BINDING PROTEIN INHIBITORS” (priority 2021, published 2024).
pEC50, pIC50: −log10 of the molar value. In brackets after ≈: the same amount, converted by molar mass.

Columns and labels:
A. baumannii CDC-0033 = experiment: microbe, parasite or virus in culture; type: cell-based; conditions: Acinetobacter baumannii, CDC0033, read-out: MIC, A. baumannii CDC-0033
A. baumannii CDC-0045 = experiment: microbe, parasite or virus in culture; type: cell-based; conditions: Acinetobacter baumannii, CDC0045, read-out: MIC, A. baumannii CDC-0045
[1] = target: T1, PBP3 from Acinetobacter baumannii (ATCC 19606) (Acinetobacter baumannii, UniProt A0ABX6CK25); experiment: Bocillin-FL fluorescence polarization competition binding, A. baumannii PBP3; conditions: fluorescence polarization competition binding assay using Bocillin-FL; read-out: A. baumannii PBP3 Potency
T1 sequence (A0ABX6CK25 64-610): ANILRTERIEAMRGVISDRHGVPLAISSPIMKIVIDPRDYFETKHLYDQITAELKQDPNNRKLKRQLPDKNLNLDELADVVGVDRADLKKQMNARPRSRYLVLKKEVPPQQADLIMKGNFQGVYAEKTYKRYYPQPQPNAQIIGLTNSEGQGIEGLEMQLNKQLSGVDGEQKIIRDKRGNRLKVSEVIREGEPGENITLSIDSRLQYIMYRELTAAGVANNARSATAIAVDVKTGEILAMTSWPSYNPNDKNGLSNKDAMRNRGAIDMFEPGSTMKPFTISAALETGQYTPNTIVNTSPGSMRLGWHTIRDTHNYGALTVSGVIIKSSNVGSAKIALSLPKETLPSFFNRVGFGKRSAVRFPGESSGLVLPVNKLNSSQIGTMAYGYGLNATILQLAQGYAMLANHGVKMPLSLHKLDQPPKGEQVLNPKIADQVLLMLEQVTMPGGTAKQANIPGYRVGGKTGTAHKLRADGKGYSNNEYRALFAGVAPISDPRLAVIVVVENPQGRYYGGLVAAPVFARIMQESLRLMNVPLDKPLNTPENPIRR
In short: (§1)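 Purified PBP was preincubated with inhibitor (E. coli PBP3 1.5 μM, 30 min; P. aeruginosa PBP3 0.75 μM, A. baumannii PBP3 0.2 μM and PBP1a 1 μM, 15 min), then Bocillin-FL (0.1 μM; 0.05 μM for PBP1a) added and FP read up to 60 min. EC50 = 50% loss of bound probe.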

P. aeruginosa ATCC 35151 = experiment: microbe, parasite or virus in culture; type: cell-based; conditions: Pseudomonas aeruginosa, ATCC35151, read-out: Minimum inhibitory concentration, P. aeruginosa ATCC 35151
A. baumannii PBP2 = A. baumannii PBP2 (Acinetobacter baumannii, UniProt D0C8Z9); experiment: Bocillin-FL competition binding via gel filtration, A. baumannii PBP2
A. baumannii PBP2, sequence (D0C8Z9 whole entry): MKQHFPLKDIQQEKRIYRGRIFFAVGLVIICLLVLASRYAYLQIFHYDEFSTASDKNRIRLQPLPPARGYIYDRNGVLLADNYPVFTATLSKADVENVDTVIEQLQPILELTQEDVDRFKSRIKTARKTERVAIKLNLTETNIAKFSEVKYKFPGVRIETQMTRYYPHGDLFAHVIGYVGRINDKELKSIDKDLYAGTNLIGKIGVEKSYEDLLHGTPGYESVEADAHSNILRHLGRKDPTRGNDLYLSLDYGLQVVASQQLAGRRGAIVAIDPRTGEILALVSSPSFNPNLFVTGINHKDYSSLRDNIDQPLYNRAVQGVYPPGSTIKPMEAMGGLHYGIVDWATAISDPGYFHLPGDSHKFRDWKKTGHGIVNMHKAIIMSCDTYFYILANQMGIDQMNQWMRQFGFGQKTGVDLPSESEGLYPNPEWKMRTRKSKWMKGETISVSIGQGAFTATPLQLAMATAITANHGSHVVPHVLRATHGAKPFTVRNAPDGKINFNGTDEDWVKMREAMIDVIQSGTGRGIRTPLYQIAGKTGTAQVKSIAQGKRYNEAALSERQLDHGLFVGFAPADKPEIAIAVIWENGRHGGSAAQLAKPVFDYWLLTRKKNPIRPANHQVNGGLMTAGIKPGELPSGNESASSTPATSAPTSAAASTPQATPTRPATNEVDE
In short: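 Competitive equilibrium binding with Bocillin-FL reporter: PBP pre-incubated with inhibitor dilutions, Bocillin-FL added, 15 min incubation. Labelled enzyme isolated by size-exclusion spin plates, fluorescence measured; EC50 obtained by fitting bound fraction against inhibitor concentration with a Hill-coefficient model.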

[2] = target: T2, PBP3 from Escherichia coli (K-12) (Escherichia coli, UniProt P0AD68); experiment: Bocillin-FL fluorescence polarization competition binding, E. coli PBP3
T2 construct: made in house
T2 sequence (P0AD68 1-577): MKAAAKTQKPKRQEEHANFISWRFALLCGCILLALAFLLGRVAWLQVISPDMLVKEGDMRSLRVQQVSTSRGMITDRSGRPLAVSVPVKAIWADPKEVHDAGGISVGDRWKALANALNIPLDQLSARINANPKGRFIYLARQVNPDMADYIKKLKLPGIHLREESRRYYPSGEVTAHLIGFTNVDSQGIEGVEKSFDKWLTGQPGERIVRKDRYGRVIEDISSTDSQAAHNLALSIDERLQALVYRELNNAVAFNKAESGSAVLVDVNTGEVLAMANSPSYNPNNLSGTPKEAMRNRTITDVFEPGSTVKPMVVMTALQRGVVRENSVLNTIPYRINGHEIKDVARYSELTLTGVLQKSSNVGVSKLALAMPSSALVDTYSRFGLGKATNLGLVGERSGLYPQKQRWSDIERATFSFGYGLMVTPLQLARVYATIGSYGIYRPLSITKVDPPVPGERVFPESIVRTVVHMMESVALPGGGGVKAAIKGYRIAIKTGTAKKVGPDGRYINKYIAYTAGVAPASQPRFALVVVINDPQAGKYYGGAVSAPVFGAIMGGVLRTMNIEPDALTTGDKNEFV
In short: as §1

P. aeruginosa CDC-0095 = experiment: microbe, parasite or virus in culture; type: cell-based; conditions: Pseudomonas aeruginosa, CDC0095, read-out: Minimum inhibitory concentration, P. aeruginosa CDC-0095

SMILES | MIC (A. baumannii CDC-0033) | MIC (A. baumannii CDC-0045) | pIC50 [1] | MIC (P. aeruginosa ATCC 35151) | pEC50 (A. baumannii PBP2) | pEC50 [2] | MIC (P. aeruginosa CDC-0095)
O=C(O)c1c(F)ccc2c1OB(O)[C@@H](NC(=O)C(NC(=O)N1CCN(Cc3ccc(O)c(O)c3Cl)C(=O)C1=O)c1ccc(P(=O)(O)O)cc1)C2 (stereo partly drawn) [Example 8, (3R)-3-(2-(4-(2-chloro-3,4-dihydroxybenzyl)-2,3-dioxopiperazine-1-carboxamido)-2-(4-phosphonophenyl)acetamido)-7-fluoro-2-hydroxy-3,4-dihydro-2H-benzo[e][1,2]oxaborinine-8-carboxylic acid] | < 1 µg/mL | < 1 µg/mL | > 5.00 | < 1 µg/mL | 4.30 to 5.00 | > 5.00 | < 1 µg/mL
O=C(O)c1c(F)ccc2c1OB(O)[C@@H](NC(=O)C(NC(=O)N1CCN(Cc3ccc(O)c(O)c3Cl)C(=O)C1=O)c1ccc(P(=O)(O)O)c(F)c1)C2 (stereo partly drawn) [Example 23, (3R)-3-(2-(4-(2-chloro-3,4-dihydroxybenzyl)-2,3-dioxopiperazine-1-carboxamido)-2-(3-fluoro-4-phosphonophenyl)acetamido)-7-fluoro-2-hydroxy-3,4-dihydro-2H-benzo[e][1,2]oxaborinine-8-carboxylic acid] | < 1 µg/mL | < 1 µg/mL | > 5.00 | < 1 µg/mL | > 5.00 | > 5.00 | < 1 µg/mL
O=C(O)c1cccc2c1OB(O)[C@@H](NC(=O)C(NC(=O)N1CCN(Cc3ccc(O)c(O)c3Cl)C(=O)C1=O)c1ccc(P(=O)(O)O)cc1)C2 (stereo partly drawn) [Example 24, (3R)-3-(2-(4-(2-chloro-3,4-dihydroxybenzyl)-2,3-dioxopiperazine-1-carboxamido)-2-(4-phosphonophenyl)acetamido)-2-hydroxy-3,4-dihydro-2H-benzo[e][1,2]oxaborinine-8-carboxylic acid] | < 1 µg/mL | < 1 µg/mL | > 5.00 | < 1 µg/mL | 4.30 to 5.00 | > 5.00 | < 1 µg/mL
O=C(O)c1c(F)ccc2c1OB(O)[C@@H](NC(=O)C(NC(=O)N1CCN(Cc3cc(F)c(O)c(O)c3Cl)C(=O)C1=O)c1ccc(P(=O)(O)O)cc1)C2 (stereo partly drawn) [Example 45, (3R)-3-(2-(4-(2-chloro-5-fluoro-3,4-dihydroxybenzyl)-2,3-dioxopiperazine-1-carboxamido)-2-(4-phosphonophenyl)acetamido)-7-fluoro-2-hydroxy-3,4-dihydro-2H-benzo[e][1,2]oxaborinine-8-carboxylic acid] | < 1 µg/mL | < 1 µg/mL | > 5.00 | < 1 µg/mL | > 5.00 | > 5.00 | < 1 µg/mL
O=C(N[C@@H](C(=O)N[C@H]1Cc2cccc(C(=O)O)c2OB1O)c1ccc(P(=O)(O)O)cc1)c1ccc(O)c(O)c1Cl [Example 49, (R)-3-((R)-2-(2-chloro-3,4-dihydroxybenzamido)-2-(4-phosphonophenyl)acetamido)-2-hydroxy-3,4-dihydro-2H-benzo[e][1,2]oxaborinine-8-carboxylic acid] | > 128 µg/mL | > 128 µg/mL | > 5.00 | < 1 µg/mL | 4.30 to 5.00 | < 3.60 | < 1 µg/mL
O=C(NCCN1CCN(C(=O)NC(C(=O)N[C@H]2Cc3ccc(F)c(C(=O)O)c3OB2O)c2ccc(P(=O)(O)O)cc2)C(=O)C1=O)c1ccc(O)c(O)c1Cl (stereo partly drawn) [Example 120, (3R)-3-(2-(4-(2-(2-chloro-3,4-dihydroxybenzamido)ethyl)-2,3-dioxopiperazine-1-carboxamido)-2-(4-phosphonophenyl)acetamido)-7-fluoro-2-hydroxy-3,4-dihydro-2H-benzo[e][1,2]oxaborinine-8-carboxylic acid] | 2 to 4 µg/mL (≈ 2.53 to 5.05 µM) | < 1 µg/mL | > 5.00 | < 1 µg/mL | 4.30 to 5.00 | > 5.00 | < 1 µg/mL
